{"source": "patent US20200207830A1", "about": "“TREM2 MUTANTS RESISTANT TO SHEDDASE CLEAVAGE” (NOVARTIS AG, priority 2017, published 2020)", "molecules": {"B1": {"name": "T2-double: human TREM2 mutant combining T2-YGG and T2-WFR mutations; SEQ ID NO: 48 (protein)", "chain": "MEPLRLLILLFVTELSGAHNTTVFQGVAGQSLQVSCPYDSMKHWGRRKAWCRQLGEKGPCQRVVSTHNLWLLSFLRRWNGSTAITDDTLGGTLTITLRNLQPHDAGLYQCQSLHGSEADTLRKVLVEVLADPLDHRDAGDLWFPGESESFEDAHVYGGWGGWGPEGEIWFRWTSILLLLACIFLIKILAASALWAAAWHGQKPGTHPPSELDCGHDPGYQLQTLPGLRDT"}, "B2": {"name": "recombinant ADAM10 (protein)", "chain": "TTSAEKNTCQLYIQTDHLFFKYYGTREAVIAQISSHVKAIDTIYQTTDFSGIRNISFMVKRIRINTTADEKDPTNPFRFPNIGVEKFLELNSEQNHDDYCLAYVFTDRDFDDGVLGLAWVGAPSGSSGGICEKSKLYSDGKKKSLNTGIITVQNYGSHVPPKVSHITFAHEVGHNFGSPHDSGTECTPGESKNLGQKENGNYIMYARATSGDKLNNNKFSLCSIRNISQVLEKKRNNCFVESGQPICGNGMVEQGEECDCGYSDQCKDECCFDANQPEGRKCKLKPGKQCSPSQGPCCTAQCAFKSKSEKCRDDSDCAREGICNGFTALCPASDPKPNFTDCNRHTQVCINGQCAGSICEKYGLEECTCASSDGKDDKELCHVCCMKKMDPSTCASTGSVQWSRHFSGRTITLQPGSPCNDFRGYCDVFMRCRLVDADGPLARLKKAIFSPELYENIAE"}}, "key": {"ADAM17": {"molecular_target": "ADAM17 (Homo sapiens, UniProt P78536)", "sequence (P78536 215-824)": "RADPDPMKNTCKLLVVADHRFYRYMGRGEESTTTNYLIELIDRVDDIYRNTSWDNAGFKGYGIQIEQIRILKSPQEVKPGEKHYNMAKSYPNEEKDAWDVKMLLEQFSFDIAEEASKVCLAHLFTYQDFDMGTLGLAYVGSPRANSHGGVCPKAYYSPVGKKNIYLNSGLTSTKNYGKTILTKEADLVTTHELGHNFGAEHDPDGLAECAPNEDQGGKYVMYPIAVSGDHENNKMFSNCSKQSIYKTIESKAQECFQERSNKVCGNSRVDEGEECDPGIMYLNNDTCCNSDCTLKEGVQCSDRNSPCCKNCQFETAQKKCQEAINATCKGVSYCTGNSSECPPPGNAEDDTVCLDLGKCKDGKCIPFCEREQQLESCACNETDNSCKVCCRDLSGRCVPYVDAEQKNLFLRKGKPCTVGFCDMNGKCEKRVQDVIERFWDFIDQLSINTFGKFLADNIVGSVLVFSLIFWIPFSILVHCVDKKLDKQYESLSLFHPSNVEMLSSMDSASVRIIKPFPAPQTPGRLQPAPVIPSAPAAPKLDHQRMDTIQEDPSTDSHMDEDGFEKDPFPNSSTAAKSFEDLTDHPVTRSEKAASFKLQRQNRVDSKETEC", "test": "In vitro inhibition of recombinant ADAM17", "format": "biochemical", "conditions": "Hepes buffer pH 7.5"}, "ADAM10": {"molecular_target": "T1, ADAM10 (Homo sapiens, UniProt O14672)", "T1 sequence (O14672 214-748)": "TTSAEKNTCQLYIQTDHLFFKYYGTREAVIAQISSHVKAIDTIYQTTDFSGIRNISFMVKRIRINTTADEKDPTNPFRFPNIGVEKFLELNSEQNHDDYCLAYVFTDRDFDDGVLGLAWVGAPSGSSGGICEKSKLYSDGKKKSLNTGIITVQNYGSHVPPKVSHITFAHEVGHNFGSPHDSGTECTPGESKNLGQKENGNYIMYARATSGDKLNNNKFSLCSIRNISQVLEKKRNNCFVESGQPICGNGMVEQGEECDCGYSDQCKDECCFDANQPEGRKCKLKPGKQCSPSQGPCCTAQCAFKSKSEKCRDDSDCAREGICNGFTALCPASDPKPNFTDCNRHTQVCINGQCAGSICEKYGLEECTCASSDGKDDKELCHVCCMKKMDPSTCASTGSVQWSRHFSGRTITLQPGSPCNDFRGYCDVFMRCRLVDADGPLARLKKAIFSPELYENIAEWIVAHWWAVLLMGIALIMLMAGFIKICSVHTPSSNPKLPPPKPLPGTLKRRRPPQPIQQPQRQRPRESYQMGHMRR", "test": "In vitro inhibition of recombinant ADAM10", "format": "biochemical", "conditions": "Hepes buffer pH 7.5", "experimental": "FIG. 2E is a line graph showing inhibition of recombinant ADAM10 and ADAM17 by DPC333 and GI254023 in vitro in Hepes buffer at pH 7.5.\nEnzyme selectivity of the ADAM inhibitors applied was determined in an in vitro cleavage assay and both inhibitors were used over a broad concentration range to investigate effects on TREM2 cell surface expression in CHO-hDAP12-hTREM2 cells and human M2A macrophages."}, "CHO-hDAP12-hTREM2 cells": {"test_system": "CHO-hDAP12-hTREM2 cells", "test": "Live cell imaging of TREM2 cell surface expression in CHO-hDAP12-hTREM2 cells", "format": "cell-based", "conditions": "overnight treatment", "from_the_text": "(§1) CHO cells were transfected to co-express hDAP12 and hTREM2 using Lipofectamine LTX reagent (Thermofischer) according to the manufacturer's recommendations. One positive clone was selected and designated CHO-hDAP12-hTREM2. Human M2A macrophages were obtained from buffy coat using a negative isolation kit for monocytes (Stem cell technologies) and differentiated for 5 days in RPMI1640 medium with Glutamax (Gibco) supplemented with 10% FBS (Gibco), PenStrep (Gibco), 1% Sodium Pyruvate (Gibco), 0.025 M HEPES Buffer (Gibco), 0.05 mM β-mercaptoethanol (Gibco), M-CSF (40 ng/ml) and IL-4 (50 ng/ml). Cell surface TREM2 was detected by FACS as described above.\n(§2) Human M2A macrophages or CHO-hDAP12-hTREM2 were seeded on 384 well plates (Greiner) and treated with ADAM inhibitors DPC333 or GI254023 at concentrations indicated in the figures. 16 h later cells were treated for 30 minutes with PMA (50 ng/ml) or 0.1% DMSO for 30 minutes. Plates were put on ice and stained with goat anti human TREM2 antibody AF1828 (R&D Systems) or isotype control and Hoechst stain followed by incubation with the secondary Alexa Fluor 488 conjugated anti goat antibody (Molecular Probes). Images were acquired using an InCe112000 analyzer (GE Healthcare). For image quantification the free open source software CellProfiler was applied.\nTo determine the contribution of ADAM10 or ADAM17 to shedding of TREM2 ectodomain, selective inhibitors were identified: DPC333 (Qian et al., Drug Metabolism and Disposition: the Biological Fate of Chemicals 35, 1916-1925, 2007) and GI254023 (Hundhausen et al., Blood. 2003; 102:1186-1195). DPC333 and GI254023 were characterized for inhibitory selectivity towards ADAM10 and ADAM17. […] Using live cell imaging, cell surface expression of hTREM2 was assessed in CHO-hDAP12-hTREM2 cells after overnight treatment of the cells with the two ADAM inhibitors under conditional shedding conditions (FIG. 2A) or after treatment of the cells with PMA (FIG. 2B). […] This effect might be attributed to true ADAM10 inhibition or it might be caused by unspecific inhibition of ADAM17 by GI254023 when used at high concentrations. […] To get closer to a physiological cellular system, a similar experiment was conducted in human M2A macrophages differentiated from CD^14+ human monocytes (FIGS. 2C-2D)."}, "human M2A macrophages": {"test_system": "human M2A macrophages", "test": "Live cell imaging of TREM2 cell surface expression in human M2A macrophages", "format": "cell-based", "from_the_text": "as §1, §2\nTo determine the contribution of ADAM10 or ADAM17 to shedding of TREM2 ectodomain, selective inhibitors were identified: DPC333 (Qian et al., Drug Metabolism and Disposition: the Biological Fate of Chemicals 35, 1916-1925, 2007) and GI254023 (Hundhausen et al., Blood. 2003; 102:1186-1195). DPC333 and GI254023 were characterized for inhibitory selectivity towards ADAM10 and ADAM17. […] Using live cell imaging, cell surface expression of hTREM2 was assessed in CHO-hDAP12-hTREM2 cells after overnight treatment of the cells with the two ADAM inhibitors under conditional shedding conditions (FIG. 2A) or after treatment of the cells with PMA (FIG. 2B). […]"}, "THP1 cells": {"test_system": "THP1 cells", "test": "Cell surface TREM2 and sTREM2 in THP1 CRISPR cell clones", "format": "cell-based, human", "method": "THP1 cells stably coexpressing Cas9 and a blasticidin resistance gene delivered by lentivirus were cultured in RPMI medium containing 10% FBS, 1% L-glutamine, 1% pen/strep, and 10 μg/ml of blasticidin (Thermo Fisher Scientific). The cells were cultured at 37° C. in 5% CO2 atmosphere.\nTHP1-Cas9 cells were infected with lentiviruses expressing the puromycin resistance gene and sgRNAs (for vector design, see Hoffman, Proceedings of the National Academy of Sciences of the United States of America 111, 3128-3133, 2014) targeting either ADAM10 ([…], SEQ ID NO: 75) or ADAM17 ([…], SEQ ID NO: 76). Lentiviral packaging was carried out in HEK293T cells as described previously. Briefly, 30 μL of lentiviral sgRNA supernatant was added to 1×10^6 THP1-Cas9 cells in 2 ml medium containing 5 μg/ml polybrene (Sigma) and spun at 300 g for 90 minutes in a 6-well plate. After 24 hours the cells were spun down and resuspended in fresh culture medium containing 1.5 μg/mL puromycin. After 4 weeks of weekly media changes, genomic DNA was isolated using a Quick-gDNA miniprep kit (Zymo Research) to assess the insertions and deletions (indels) present in the pool by next-generation sequencing (NGS). To isolate clones containing only frameshift indels, cells were plated at limiting dilution into 96-well plates. Upon expansion of the clones, they were assayed by NGS and clones containing only frameshift alleles were selected for downstream assays.\nTo confirm the results in Example 2, a genetic approach was used to further investigate the contribution of ADAM10/17 to TREM2 shedding. Human monocytic THP1 cells were chosen as model system which endogenously expresses TREM2. Employing the CRISPR/CAS9 technology, clones were generated that lack expression of ADAM10 (AD10 H4) or ADAM17 (AD17 G12) as well as a control cell line (Ctrl gRNA). Absence of gene products was verified by FACS analysis or Western blot (FIGS. 3C-3D).\nCell surface expressed TREM2 and sTREM2 were assessed in the three cell lines in the same experiment using three different conditions: no treatment reflecting constitutive shedding, PMA treatment that maximally activates shedding, and finally PMA and DPC333 treatment. […] Maximally activating sheddases with PMA leads to a strong reduction of cell surface TREM2 both in the control cell line and in the ADAM10 deficient clone. This is reflected in a strong increase in sTREM2. In the ADAM17 deficient cell line, PMA treatment also leads to a reduction of cell surface TREM2, but to a smaller extent than in the control CRISPR clone. Also, the increase in sTREM2 is smaller compared to PMA treated control CRISPR clone and ADAM10 deficient clone. However, the cleavage of TREM2 in the AD17 G12 clone in the presence of PMA must be caused by a sheddase other than ADAM17. […]"}, "BWZ-lacZ-mDAP12 cells": {"test_system": "BWZ-lacZ-mDAP12 cells", "test": "Reporter gene assay in BWZ cells", "format": "cell-based", "conditions": "stably expressed with mDAP12, activating anti-TREM2 mAb vs isotype control, 16 h, compared with BWZ-TREM2-WT cells", "method": "BWZ thymoma reporter cells, which express lacZ under control of the promoter for nuclear factor of activated T cells (NFAT, Hsieh et al, Journal of Neurochemistry 109, 1144-1156, 2009) were transfected to co-express mDAP12 and WT hTREM2 or T2double TREM2. Cells were seeded in RPMI without phenol red supplemented with 2% FBS and 1% non-essential amino acids on high binding microtiter plates (Greiner) pre-coated with rat anti-mouse/human TREM2 mAb (R&D, MAB17291) or isotype control. Cell culture was continued for 16 h. Reporter gene activity was assessed with the Beta-glo assay system (Promega) according to the manufacturer's recommendations using an Envision 2104 multilabel reader (Perkin Elmer).\nNext it was tested whether the T2-double-TREM2 construct retained functionality. To this end this mutant was stably transfected into BWZ cells that already expressed mouse DAP12 and a beta-Gal reporter driven by NFAT (Hsieh, Journal of Neurochemistry 109, 1144-1156, 2009). mDAP12 expressed without TREM2 in this cell lines represents background reporter gene activity (RGA) in this system. […] Thus, the T2-double-TREM2 construct retained TREM2 functions."}, "[1]": {"molecular_target": "T2, TREM2 stalk region derived synthetic peptide, Peptide 3", "T2 chain": "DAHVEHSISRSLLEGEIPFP"}, "[2]": {"molecular_target": "T3, TREM2 stalk region derived synthetic peptide, Peptide 4 (H-SI cleavage site replaced with IPP)", "T3 chain": "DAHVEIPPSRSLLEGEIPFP"}, "[3]": {"molecular_target": "T4, TREM2 stalk region derived synthetic peptide, Peptide 5 (H-SI cleavage site replaced with IPD)", "T4 chain": "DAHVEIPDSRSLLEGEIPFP"}, "[4]": {"molecular_target": "T5, TREM2 stalk region derived synthetic peptide, Peptide 6 (H-SI cleavage site replaced with IDP)", "T5 chain": "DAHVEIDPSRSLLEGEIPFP"}}, "data": [{"molecule": "Cc1cc(COc2ccc([C@]3(N)CCN([C@H](CC(C)C)C(=O)NO)C3=O)cc2)c2ccccc2n1", "note": "[DPC333]", "values": [{"measurement": "IC50", "setting": "ADAM17", "result": "< 0.6", "unit": "nM"}, {"measurement": "IC50", "setting": "ADAM10", "result": 5.3, "unit": "nM"}, {"measurement": "TREM2 cell surface levels", "setting": "CHO-hDAP12-hTREM2 cells; conditional shedding (steady state) conditions, FIG. 2A", "result": "dose-dependently increases"}, {"measurement": "TREM2 cell surface levels", "setting": "CHO-hDAP12-hTREM2 cells; then PMA-treated cells, FIG. 2B", "result": "dose-dependently increases"}, {"measurement": "TREM2 cell surface expression", "setting": "human M2A macrophages; additional PMA treatment, FIG. 2D", "result": "increases TREM2 cell surface expression dose-dependently"}, {"measurement": "TREM2 cell surface expression", "setting": "human M2A macrophages; steady-state shedding, FIG. 2C", "result": "increases TREM2 cell surface expression dose-dependently"}, {"measurement": "TREM2 cell surface levels", "setting": "THP1 cells; co-treatment with PMA and DPC333, AD10 H4 cells (ADAM10 knockout)", "result": "restored"}, {"measurement": "TREM2 cell surface levels", "setting": "THP1 cells; co-treatment with PMA and DPC333, AD17 G12 clone (ADAM17 knockout)", "result": "smaller effects"}, {"measurement": "TREM2 cell surface levels", "setting": "THP1 cells; co-treatment with PMA and DPC333, Ctrl gRNA cells", "result": "restored"}, {"measurement": "sTREM2", "setting": "THP1 cells; co-treatment with PMA and DPC333 compared to PMA treatment only, AD17 G12 clone", "result": "strongly reduced"}]}, {"molecule": "B1", "values": [{"measurement": "Reporter gene activity (RGA) after TREM2 activation", "setting": "BWZ-lacZ-mDAP12 cells", "result": "comparable activity"}]}, {"molecule": "B2", "values": [{"measurement": "in vitro cleavage of peptide by ADAM10, HPLC", "setting": "[1]", "result": "The same analysis was carried out with ADAM10, and a very similar cleavage pattern was obtained (data not shown)"}, {"measurement": "in vitro cleavage of peptide by ADAM10", "setting": "[2]", "result": "Peptide 4, with its IPP replacement for the H-SI cleavage site, appeared to be cleavage resistant in vitro"}, {"measurement": "in vitro cleavage of peptide by ADAM10", "setting": "[3]", "result": "Peptides 5 and 6 were slowly cleaved by ADAM10 (data not shown)"}, {"measurement": "in vitro cleavage of peptide by ADAM10", "setting": "[4]", "result": "Peptides 5 and 6 were slowly cleaved by ADAM10 (data not shown)"}]}]}
